From patent US20250127787A1, “METHODS FOR TREATING PERIPHERAL NEUROPATHY” (University of Pittsburgh - Of the Commonwealth System of …, priority 2021, published 2025)
“Also recorded” adds a separate entry of the source.

Assays:
sciatic nerve-crush rats = experiment: Von Frey sensory testing after sciatic nerve crush; assay type: in vivo, rat; settings: hindpaw footpad, day 2 and day 5 post injury, 8-AG 5 mg/kg/day in drinking water
Experimental: Animals. This study employed female Harlan Sprague Dawley (HSD) rats (3-4 mo; Envigo, Indianapolis, IN) and were divided into the following groups: 1) Control, 2) Sciatic nerve crush (day 0, sacrifice on day 6); 3) 8-aminoguanine (8-AG; 5 mg/kg/day in drinking water; beginning 2 weeks prior to nerve crush and continuing until sacrifice (day 6)). The dose of 8-AG is based on the work above and published experiments. Further, the water consumption/day was tracked. […] All tissues (hindpaw epidermis) were removed from isoflurane anesthetized rats and the tissue was used for various experimental approaches as described below. At the end of tissue removal, animals were sacrificed by thoracotomy.
Von Frey sensory testing. Control, sciatic nerve crush (one of the most common models of peripheral nerve injury in rodents) and 8-AG-treated sciatic nerve-crush rats were placed in an elevated chamber on a wire mesh floor and after acclimatization, calibrated von Frey microfilaments were applied to determine paw withdrawal threshold (PWT, in grams). Briefly, microfilaments (Stoelting Corp, USA) were applied with different forces perpendicularly to the plantar surface of both ipsilateral and contralateral hindpaw by increasing and decreasing stimulus intensity. […]

[1] = test system: isolated mitochondria from spinal cord (L3-L5) homogenates; experiment: Mitochondrial respiration (respiratory control ratio) in CYP-CIPN rat spinal cord; assay type: in vivo; settings: oral 8-AG
Experimental: Animals. This study employed female Harlan Sprague Dawley (HSD) rats (3-4 mo; Envigo, Indianapolis, IN) and were divided into the following groups: 1) Control, 2) Cyclophosphamide (CYP, 75 mg/kg i.p. in saline vehicle; administered on days 0, 3 and 6); 3) 8-aminoguanine (8-AG; 5 mg/kg/day in drinking water; beginning 2 weeks prior to CYP and continuing until sacrifice (day 8)). The dose of 8-AG is based on our preliminary and published experiments. […] The investigation conforms to the Guide for the Care and Use of Laboratory Animals published by the US National Institutes of Health (NIH Publication No. 85-23, revised 1996). In addition, all tissues (dorsal root ganglion, spinal cord, peripheral nerves and hindpaw epidermis) were removed from isoflurane anesthetized rats and the tissue was used for various experimental approaches as described below. At the end of tissue removal, animals were sacrificed by thoracotomy.
Mitochondrial Respiration. Homogenates (peripheral nerve and/or spinal cord) were used to measure mitochondrial respiration. Mitochondria were isolated as described earlier with modifications. […] The respiratory control ratio (RCR), a measure of the “tightness of coupling” between electron transport and oxidative phosphorylation, was determined from ratio of state 3 to state 4 rates of respiration. […]

Nc1nc2[nH]c(N)nc2c(=O)[nH]1 [8-AG, 8-Aminoguanine]
effect on injury-induced increase in sensitivity to mechanical stimuli (paw withdrawal threshold) (sciatic nerve-crush rats): restored to control values; also recorded: normalized
effect on injury-induced increase in sensitivity to mechanical stimuli (paw withdrawal threshold) (sciatic nerve-crush rats; listed as 8-Aminoguanine): normalized
effect on CYP-induced decrease in respiratory control ratio (RCR) [1]: reversed to values similar to Control; also recorded: prevented
